Data taken from US5786348A, “Methods for preparation and use of 1α,24(S)-dihydroxy vitamin D2” (priority 1995, dated 1998).
Where two headings read alike, the source gives them in different places. Blank lines part the entries; values can stand above or below the molecule they belong to.

Legend:
vitamin D receptor (VDR) = biological target: T1, vitamin D receptor (VDR) (Homo sapiens, UniProt P11473); experiment: Vitamin D-dependent transcriptional activation: growth hormone production in COS-1 cells co-transfected with VDR plasmid and VDRE-GH reporter; format: cell-based; settings: for Total GH Production: averages of duplicate determinations
T1 sequence (P11473 1-427): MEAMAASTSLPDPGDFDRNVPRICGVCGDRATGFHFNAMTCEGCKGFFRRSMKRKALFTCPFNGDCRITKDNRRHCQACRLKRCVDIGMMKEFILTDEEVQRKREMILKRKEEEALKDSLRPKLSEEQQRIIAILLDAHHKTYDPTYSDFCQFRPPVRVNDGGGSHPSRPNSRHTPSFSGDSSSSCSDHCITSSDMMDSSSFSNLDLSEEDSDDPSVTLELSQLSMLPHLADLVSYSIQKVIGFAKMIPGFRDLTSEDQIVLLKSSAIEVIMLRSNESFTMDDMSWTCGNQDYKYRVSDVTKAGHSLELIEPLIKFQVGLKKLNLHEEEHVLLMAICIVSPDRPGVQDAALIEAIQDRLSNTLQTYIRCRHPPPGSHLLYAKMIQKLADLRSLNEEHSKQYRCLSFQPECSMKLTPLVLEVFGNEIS
Description: The biological activity in vitro of chemically synthesized 1α,24(S)-(OH)2 D2 and 1α,24(R)-(OH)2 D2 was measured using a vitamin D-dependent transcriptional activation model system in which a vitamin D receptor (VDR)-expressing plasmid pSG5-hVDR1/3and a plasmid p(CT4)^4 TKGH containing a Growth Hormone (GH)-gene, under the control of a vitamin D-responsive element (VDRE) were co-transfected into Green monkey kidney, COS-1 cells. DNA's for these two vectors were supplied by Dr. Mark Haussler, Department of Biochemistry, University of Arizona, Tucson, Ariz.
Transfected cells were incubated with vitamin D metabolites and growth hormone production was measured.

[1] = tested on: 1,25-(OH)2 D3 receptor site; settings: Ishizuka et al., Steroids 1981, 1982; cited from earlier work
bovine thymus VDR = biological target: T2, bovine thymus VDR (Bos taurus, UniProt Q28037); experiment: Radioreceptor assay with bovine thymus VDR (Incstar), displacement of 3H-1α,25-(OH)2 D3; format: binding; settings: bovine thymus VDR radioreceptor assay; read-out: Half-maximal binding (converted)
T2 construct: commercially available kit of bovine thymus VDR; purchased Incstar (Stillwater, Minn.); host or cells: bovine thymus
T2 sequence (Q28037 1-426): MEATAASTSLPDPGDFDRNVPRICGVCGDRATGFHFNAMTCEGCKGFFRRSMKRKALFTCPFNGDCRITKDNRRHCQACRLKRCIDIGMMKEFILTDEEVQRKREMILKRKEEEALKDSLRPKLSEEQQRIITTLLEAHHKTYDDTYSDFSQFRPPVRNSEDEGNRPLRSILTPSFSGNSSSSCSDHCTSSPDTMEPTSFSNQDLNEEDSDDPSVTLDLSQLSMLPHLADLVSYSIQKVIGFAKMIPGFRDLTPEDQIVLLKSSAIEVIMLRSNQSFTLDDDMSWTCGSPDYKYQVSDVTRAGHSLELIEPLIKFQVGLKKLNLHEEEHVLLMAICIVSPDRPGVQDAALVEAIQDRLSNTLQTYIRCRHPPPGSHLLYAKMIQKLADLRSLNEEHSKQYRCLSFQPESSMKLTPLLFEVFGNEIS
Source text: Purified 1α,24(S)-(OH)2 D2 was quantitated by photodiode array spectrophotometry and assayed in the radioreceptor assay.
The purified 1α,24(R)-(OH)2 D2 and 1α,24(S)-(OH)2 D2 epimers were quantitated by ultraviolet spectroscopy. The concentration of 1α,24(R)-(OH)2 D2 required to produce the same displacement of ^3 H-1α,25-(OH)2 D3 tracer from the receptor was 20 to 30 times that required for 1α,24(S)-(OH)2 D2, as shown in FIG. 4.

[2] = human, in vivo; cited from earlier work
Hep 3B cells = experiment: Metabolism of 1α-OH-D2 in Hep 3B human hepatoma cells at rising substrate concentration; format: in vitro ADME; settings: Experiment 2, photodiode array spectrophotometry
Description: Substantially pure 1α-(OH)D2 was obtained from Bone Care International, Inc. of Madison, Wis. The 1α-(OH)D2 was cultured for 48 hours with cells derived from a human hepatoma, Hep 3B, in medium devoid of fetal calf serum using known methods in the art.
Lipid extracts of the combined medium and cells were generated by known methods in the art and were subjected to high pressure liquid chromatography (HPLC) on Zorbax-S1L developed with hexane/isopropanol/methanol (91:7:2). The putative 1α,24(?)-(OH)2 D2 metabolite eluted between the parent 1α-(OH)D2 and standard 1α,25-(OH)2 D2 (also obtained from Bone Care International, Inc. of Madison, Wis.). (As used herein, the term "1α,24(?)-(OH)2 D2 " is meant to indicate that the epimeric form has not been identified.) The 1α,24(?)-(OH)2 D2 was further purified by this HPLC system before the metabolite's identification was undertaken using mass spectrometry analysis.
Hep 3B cells were incubated with 1α-OH-D2, as described above, at final concentrations of 1, 10, or 100 nM (Experiment 1), and 1 or 10 μM (Experiment 2) and 1α,24(S)-(OH)2 D2 was extracted and purified. The 1α,24(S)-(OH)2 D2 and 1α,25-(OH)2 D2 metabolites were quantitated by recovered radiolabel (Experiment 1) or by photodiode array spectrophotometry (Experiment 2).

[3] = Blood metabolite levels in osteoporotic women given 1α-OH-D2; format: in vivo, human; settings: one day after a single 2 μg dose
Description: An increase in the production of 1α,24(S)-(OH)2 D2 relative to 1α,25-(OH)2 D2 has also been observed by the present inventors in human females who received 1α-OH-D2 as part of an investigation of that drug for the treatment of osteoporosis. Following either a single dose of 2 μg of 1α-OH-D2 or daily doses of 8 μg/day for one week, blood was collected and analyzed for the metabolites 1α,24(S)-(OH)2 D2 and 1α,25-(OH)2 D2. Lipid was extracted from the blood, and the metabolites were purified by HPLC using standard methods and quantified with the radioreceptor assay produced by Incstar (Stillwater, Minn.). One day after a single 2 μg dose, the level of 1α,24(S)-(OH)2 D2 was undetectable with the 1α,25-(OH)2 D2 level being approximately 11 pg/ml. In contrast, one day following the last dose of 8 μg, the level of 1α,24(S)-(OH)2 D2 averaged 9 pg/ml with the 1α,25-(OH)2 D2 level averaging 30 pg/ml.

[4] = format: in vivo, rat
Description: Vitamin D2 or 24-OH-D2 was administered (either oral or intraperitoneal supplementation) to vitamin D-deficient rats. Lipid extracts of the plasma were prepared and the metabolites purified by the method of Horst et al. (Horst, R. L., Koszewski, N. J. and Reinhardt, T. A., Biochem., 29:578-82 (1990)) described below for synthesyzing standard biological 1α,24-(OH)2 D2.
Standard biological 1α,24-(OH)2 D2 was synthesized in vitro from 24-OH-D2 by incubating 10 μg of 24-OH-D2 in flask containing 5 ml of 20% kidney homogenates made from vitamin D-deficient chicks. The product of this reaction was isolated by HPLC and identified by mass spectrometry.

[5] = inducer molar concentration 10^-7
[6] = inducer molar concentration 10^-8
[7] = inducer molar concentration 10^-9
[8] = inducer molar concentration 10^-5
[9] = inducer molar concentration 10^-6

- Net vitamin D-inducible GH-production (vitamin D receptor (VDR); [5]): 1256 ng/mL
- Total GH Production (vitamin D receptor (VDR); [5]): 1300 ng/mL
- Net vitamin D-inducible GH-production (vitamin D receptor (VDR); [6]): 1056 ng/mL
- Total GH Production (vitamin D receptor (VDR); [6]): 1100 ng/mL
- Net vitamin D-inducible GH-production (vitamin D receptor (VDR); [7]): 36 ng/mL
- Total GH Production (vitamin D receptor (VDR); [7]): 80 ng/mL
SMILES: C=C1/C(=C\C=C2/CCC[C@]3(C)[C@@H]([C@H](C)/C=C/[C@](C)(O)C(C)C)CC[C@@H]23)C[C@@H](O)C[C@@H]1O [1α,24(R)-(OH)2 D2, 1α,24(R)-dihydroxy vitamin D2]

SMILES: C=C1/C(=C\C=C2/CCC[C@]3(C)[C@@H]([C@H](C)CC[C@@H](O)C(C)C)CC[C@@H]23)C[C@@H](O)C[C@@H]1O [1α,24(R)-(OH)2 D3, 1α,24(R)-dihydroxyvitamin D3]
- Binding of the 1,25-(OH)2 D3 receptor site relative to 1,25-(OH)2 D3 [1]: more tightly

- IC50 (bovine thymus VDR): 187 pM
SMILES: C=C1/C(=C\C=C2/CCC[C@]3(C)[C@@H]([C@H](C)/C=C/[C@H](C)C(C)(C)O)CC[C@@H]23)C[C@@H](O)C[C@@H]1O [1α,25-(OH)2D2, 1α,25-dihydroxy vitamin D2, reference compound]

SMILES: C=C1/C(=C\C=C2/CCC[C@]3(C)[C@@H]([C@H](C)CCCC(C)C)CC[C@@H]23)C[C@@H](O)C[C@@H]1O [1α-(OH)D3, 1α-hydroxy vitamin D3]
- Safety of dosage levels of 2.0 μg/day or greater [2]: not safely obtained

- Rate of Production of 1α,24(S)-(OH)2 D2 (Hep 3B cells; substrate concentration 1 μM): 4.9 pmol per 10^6 cells/day
- Rate of Production of 1α,24(S)-(OH)2 D2 (Hep 3B cells; substrate concentration 10 μM): 59 pmol per 10^6 cells/day
- Rate of Production of 1α,25-(OH)2 D2 (Hep 3B cells; substrate concentration 10 μM): 7.4 pmol per 10^6 cells/day
- Blood level of metabolite 1α,24(S)-(OH)2 D2 [3]: undetectable
SMILES: C=C1/C(=C\C=C2/CCC[C@]3(C)[C@@H]([C@H](C)/C=C/[C@H](C)C(C)C)CC[C@@H]23)C[C@@H](O)C[C@@H]1O [1α-OH-D2, 1α-hydroxy vitamin D2]

SMILES: C=C1CC[C@H](O)C/C1=C/C=C1\CCC[C@]2(C)[C@@H]([C@H](C)/C=C/C(C)(O)C(C)C)CC[C@@H]12 (stereo partly shown) [24-OH-D2, 24-hydroxyvitamin D2]
- Metabolite isolated from plasma lipid extracts ([4]; rat, in vivo): co-migrated on HPLC with the standard 1α,24-(OH)2 D2

- Net vitamin D-inducible GH-production (vitamin D receptor (VDR); [8]): 731 ng/mL
- Total GH Production (vitamin D receptor (VDR); [8]): 775 ng/mL
- Net vitamin D-inducible GH-production (vitamin D receptor (VDR); [9]): 1056 ng/mL
- Total GH Production (vitamin D receptor (VDR); [9]): 1100 ng/mL
- Net vitamin D-inducible GH-production (vitamin D receptor (VDR); [5]): 201 ng/mL
- Total GH Production (vitamin D receptor (VDR); [5]): 245 ng/mL
SMILES: C=C1CC[C@H](O)C/C1=C/C=C1\CCC[C@]2(C)[C@@H]([C@H](C)CCCC(C)(C)O)CC[C@@H]12 [25-OH-D3, 25-hydroxy vitamin D3, reference compound]

SMILES: C=C1CC[C@H](O)C/C1=C/C=C1\CCC[C@]2(C)[C@@H]([C@H](C)/C=C/[C@H](C)C(C)C)CC[C@@H]12 [vitamin D2, Vitamin D2]
- Metabolite isolated from plasma lipid extracts ([4]; vitamin D-deficient rats, HPLC against standard biological 1α,24-(OH)2 D2): co-migrated on HPLC with the standard 1α,24-(OH)2 D2

SMILES: C=C1CC[C@H](O)C/C1=C/C=C1\CCC[C@]2(C)[C@@H]([C@H](C)CCCC(C)C)CC[C@@H]12 [vitamin D3]
- 24-OH-D3 in plasma ([4]; comparable vitamin D-deficient rats): no detectable
